From patent US20200222474A1, “COMPOSITIONS AND METHODS FOR INCREASING PHYTOCHEMICAL BIOAVAILABLITY AND BIOACTIVITY” (North Carolina State University, priority 2017, published 2020)

Test system: L. acidophilus NCFM
Test: RNA-seq transcriptional analysis of L. acidophilus NCFM growing on plant glycosides
Format: cell-based, Lactobacillus acidophilus
[1] = LBA1481 D-ribose-binding protein precursor, COG G
[2] = LBA1482 Ribose ABC transporter, COG G
[3] = LBA1483 Ribose ABC transporter ATP binding protein, COG G
[4] = LBA1484 D-ribose pyranase, COG G
[5] = LBA1494 Lincomycin-resistance protein, COG GEPR
[6] = LBA1607 Phosphatidylserine decarboxylase precursor, COG I
[7] = LBA1632 NAD-dependent aldehyde dehydrogenase, COG C
[8] = LBA1653 Nicotinamide mononucleotide, COG H
[9] = LBA1684 Putative PTS system IIA component, COG G
[10] = LBA1689 Maltose-6′-phosphate Oucosidase, COG G
[11] = LBA1700 Transcriptional regulator-type, COG K
[12] = LBA1701 Melibiose operon regulatory protein, COG K
[13] = LBA1705 PTS system IIBC component, COG G
[14] = LBA1708 Transcriptional antiterminator, COG K
[15] = LBA1710 Thermostable pullulanase, COG G
[16] = LBA1812 Alpha-glucosidase II, COG G
[17] = LBA1870 Maltose phosphorylase, COG G
[18] = LBA1872 Oligo-1,6-glucosidase, COG G
[19] = LBA1955 Transcription regulator family protein, COG K
[20] = gene LBA0046 (Hypothetical protein)
[21] = gene LBA0149 (Putative nucleotide-binding protein)
[22] = gene LBA0263 (Hypothetical protein)

SMILES: N#C[C@H](O[C@@H]1O[C@H](CO[C@@H]2O[C@H](CO)[C@@H](O)[C@H](O)[C@H]2O)[C@@H](O)[C@H](O)[C@H]1O)c1ccccc1 [Amygdalin]
- Transcripts per million (rpm) (LBA1468 Beta-galactosidase small subunit, COG G): 61.3 rpm
- Log2 differential normalized TPM ratio compared to glucose [1]: 3
- Log2 differential normalized TPM ratio compared to lactose [1]: 2.3
- Transcripts per million (rpm) [1]: 33 rpm
- Log2 differential normalized TPM ratio compared to glucose [2]: 3.4
- Log2 differential normalized TPM ratio compared to lactose [2]: 2.3
- Transcripts per million (rpm) [2]: 32.6 rpm
- Log2 differential normalized TPM ratio compared to glucose [3]: 3.6
- Log2 differential normalized TPM ratio compared to lactose [3]: 2.6
- Transcripts per million (rpm) [3]: 30.8 rpm
- Log2 differential normalized TPM ratio compared to glucose [4]: 3.6
- Log2 differential normalized TPM ratio compared to lactose [4]: 2.9
- Transcripts per million (rpm) [4]: 37.3 rpm
- Log2 differential normalized TPM ratio compared to glucose (LBA1485 Ribokinase, COG G): 3.5
- Log2 differential normalized TPM ratio compared to lactose (LBA1485 Ribokinase, COG G): 2.8
- Transcripts per million (rpm) (LBA1485 Ribokinase, COG G): 29.8 rpm
- Log2 differential normalized TPM ratio compared to glucose [5]: −0.7
- Log2 differential normalized TPM ratio compared to lactose [5]: −0.8
- Transcripts per million (rpm) [5]: 2.6 rpm
- Log2 differential normalized TPM ratio compared to glucose [6]: 2.6
- Log2 differential normalized TPM ratio compared to lactose [6]: 1.6
- Transcripts per million (rpm) [6]: 102.4 rpm
- Log2 differential normalized TPM ratio compared to glucose [7]: 4.4
- Log2 differential normalized TPM ratio compared to lactose [7]: 2.6
- Transcripts per million (rpm) [7]: 1223.3 rpm
- Log2 differential normalized TPM ratio compared to glucose [8]: −0.1
- Log2 differential normalized TPM ratio compared to lactose [8]: −0.7
- Transcripts per million (rpm) [8]: 180.2 rpm
- Log2 differential normalized TPM ratio compared to glucose [9]: 6.6
- Log2 differential normalized TPM ratio compared to lactose [9]: 4.7
- Transcripts per million (rpm) [9]: 976.1 rpm
- Log2 differential normalized TPM ratio compared to glucose [10]: 5.3
- Log2 differential normalized TPM ratio compared to lactose [10]: 3.9
- Transcripts per million (rpm) [10]: 113.8 rpm
- Log2 differential normalized TPM ratio compared to glucose [11]: 2.5
- Log2 differential normalized TPM ratio compared to lactose [11]: 2.1
- Transcripts per million (rpm) [11]: 96.2 rpm
- Log2 differential normalized TPM ratio compared to glucose [12]: 5.3
- Log2 differential normalized TPM ratio compared to lactose [12]: 4.6
- Transcripts per million (rpm) [12]: 1323.5 rpm
- Log2 differential normalized TPM ratio compared to glucose [13]: 2.7
- Log2 differential normalized TPM ratio compared to lactose [13]: 1.9
- Transcripts per million (rpm) [13]: 18.5 rpm
- Log2 differential normalized TPM ratio compared to glucose [14]: 2.8
- Log2 differential normalized TPM ratio compared to lactose [14]: 1.4
- Transcripts per million (rpm) [14]: 3.3 rpm
- Log2 differential normalized TPM ratio compared to glucose [15]: 2.1
- Log2 differential normalized TPM ratio compared to lactose [15]: 1.7
- Transcripts per million (rpm) [15]: 26.7 rpm
- Log2 differential normalized TPM ratio compared to glucose (LBA1723 Transposase, COG L): 2
- Log2 differential normalized TPM ratio compared to lactose (LBA1723 Transposase, COG L): 1.8
- Transcripts per million (rpm) (LBA1723 Transposase, COG L): 176.9 rpm
- Log2 differential normalized TPM ratio compared to glucose [16]: 5.3
- Log2 differential normalized TPM ratio compared to lactose [16]: 3.2
- Transcripts per million (rpm) [16]: 520.3 rpm
- Log2 differential normalized TPM ratio compared to glucose [17]: 2.7
- Log2 differential normalized TPM ratio compared to lactose [17]: 3.9
- Transcripts per million (rpm) [17]: 539.7 rpm
- Log2 differential normalized TPM ratio compared to glucose (LBA1871 Neopullulanase, COG G): 4.3
- Log2 differential normalized TPM ratio compared to lactose (LBA1871 Neopullulanase, COG G): 3.6
- Transcripts per million (rpm) (LBA1871 Neopullulanase, COG G): 43.6 rpm
- Log2 differential normalized TPM ratio compared to glucose [18]: 3.6
- Log2 differential normalized TPM ratio compared to lactose [18]: 3.2
- Transcripts per million (rpm) [18]: 30 rpm
- Log2 differential normalized TPM ratio compared to glucose (LBA1873 Acetate kinase, COG C): 4.6
- Log2 differential normalized TPM ratio compared to lactose (LBA1873 Acetate kinase, COG C): 3.2
- Transcripts per million (rpm) (LBA1873 Acetate kinase, COG C): 67.3 rpm
- Log2 differential normalized TPM ratio compared to glucose (LBA1878 Glycerol kinase, COG C): 1.4
- Log2 differential normalized TPM ratio compared to lactose (LBA1878 Glycerol kinase, COG C): 1.3
- Transcripts per million (rpm) (LBA1878 Glycerol kinase, COG C): 17.8 rpm
- Log2 differential normalized TPM ratio compared to glucose [19]: 3.8
- Log2 differential normalized TPM ratio compared to lactose [19]: 4.2
- Transcripts per million (rpm) [19]: 5835.9 rpm
- number of up-regulated genes (RNA-seq, compared to glucose): 116 genes
- number of uniquely induced genes (RNA-seq, up-regulated genes not shared with the other PGs): 58
- Log2 differential normalized TPM ratio compared to glucose [20]: −3
- Log2 differential normalized TPM ratio compared to lactose [20]: −3.8
- Transcripts per million (rpm) [20]: 29.9 rpm
- Log2 differential normalized TPM ratio compared to glucose [21]: 2
- Log2 differential normalized TPM ratio compared to lactose [21]: 1.2
- Transcripts per million (rpm) [21]: 1625.4 rpm
- Log2 differential normalized TPM ratio compared to glucose [22]: 2.1
- Log2 differential normalized TPM ratio compared to lactose [22]: 1.4
- Transcripts per million (rpm) [22]: 55.9 rpm
